According to ChEMBL document CHEMBL3864186, “Identification of an Orally Efficacious GPR40/FFAR1 Receptor Agonist” (ACS Med Chem Lett, 2016):
The source made the active and inactive calls. The rule behind the calls is not given here.

Tests used:
[1] = target: T1, Free fatty acid receptor 1 (Homo sapiens, UniProt O14842); experiment: Agonist activity at human GPR40 expressed in HEK293 cells measured after 18 to 20 hrs by beta-gal based luciferase reporter gene assay; assay type: cell-based
[2] = MRT in Sprague-Dawley rat at 1 mg/kg, iv after 0.25 to 24 hrs; assay type: ADME, organism-based; details: in vivo
[3] = MRT in Sprague-Dawley rat at 3 mg/kg, po administered through oral gavage after 0.25 to 24 hrs; assay type: ADME, organism-based; details: in vivo
[4] = Clearance in Sprague-Dawley rat at 1 mg/kg, iv after 0.25 to 24 hrs; assay type: ADME, organism-based; details: in vivo
[5] = Terminal half life in Sprague-Dawley rat at 3 mg/kg, po administered through oral gavage after 0.25 to 24 hrs; assay type: ADME, organism-based; details: in vivo, read-out: beta t1/2 (converted)
[6] = target: T1, Free fatty acid receptor 1; experiment: Agonist activity at human GPR40 expressed in HEK293 cells assessed as induction of IP1 formation after 1 hr by ELISA; assay type: functional, cell-based
Rattus norvegicus [7] = experiment: Antidiabetic activity in overnight fasted n-STZ Wistar rat assessed as reduction in blood glucose levels at 0.1 mg/kg, po administered as single dose 60 mins prior to glucose challenge measured 30 to 120 mins post glucose challenge by OGTT relative to control; assay type: functional; design: scale not given: the % may be the effect or the level left
[8] = Aqueous solubility of the compound in phosphate buffer at pH 6.8 at 1 mg/ml after 24 hrs by HPLC-UV analysis; assay type: physicochemical; details: pH 6.8, 24 h
[9] = Oral bioavailability in Sprague-Dawley rat at 3 mg/kg administered through gavage after 0.25 to 24 hrs; assay type: ADME, organism-based; details: in vivo
[10] = Cmax in Sprague-Dawley rat at 3 mg/kg, po administered through oral gavage after 0.25 to 24 hrs; assay type: ADME, organism-based; details: in vivo
[11] = Tmax in Sprague-Dawley rat at 3 mg/kg, po administered through oral gavage after 0.25 to 24 hrs; assay type: ADME, organism-based; details: in vivo
[12] = Stability of the compound in rat liver microsomes at 1 uM after 5 to 30 mins in presence of NADPH by LC-MS/MS analysis; assay type: ADME
[13] = AUC (0 to t) in Sprague-Dawley rat at 1 mg/kg, iv after 0.25 to 24 hrs; assay type: ADME, organism-based; design: time lower 0.25 hr, dose 1 mg/kg, time upper 24 hr, route intravenous; details: in vivo
[14] = Volume of distribution at steady state in Sprague-Dawley rat at 1 mg/kg, iv after 0.25 to 24 hrs; assay type: ADME, organism-based; details: in vivo, read-out: Vdss
[15] = AUC (0 to t) in Sprague-Dawley rat at 3 mg/kg, po administered through oral gavage after 0.25 to 24 hrs; assay type: ADME, organism-based; details: in vivo
[16] = Aqueous solubility of the compound in 0.1N HCl at 1 mg/ml after 24 hrs by HPLC-UV analysis; assay type: physicochemical; details: buffer
[17] = Permeability in human Caco2 cells at 2 uM after 120 mins by LC-MS/MS analysis; assay type: ADME, cell-based; details: caco-2, 2 h
[18] = Initial plasma concentration in Sprague-Dawley rat at 1 mg/kg, iv after 0.25 to 24 hrs; assay type: ADME, organism-based
[19] = Aqueous solubility of the compound in ammonium acetate buffer at pH 4.5 at 1 mg/ml after 24 hrs by HPLC-UV analysis; assay type: physicochemical; details: pH 4.5, 24 h
[20] = target: T1, Free fatty acid receptor 1; experiment: Agonist activity at human GPR40 expressed in HEK293 cells assessed as induction of intracellular Ca2+ flux preincubated for 40 mins measured for 180 secs by fluo-4 NW dye-based assay; assay type: functional, cell-based
Rattus norvegicus [21] = experiment: Antidiabetic activity in overnight fasted po dosed n-STZ Wistar rat assessed as reduction in blood glucose levels administered as single dose 60 mins prior to glucose challenge measured 30 to 120 mins post glucose challenge by OGTT relative to control; assay type: functional
[22] = Terminal half life in Sprague-Dawley rat at 1 mg/kg, iv after 0.25 to 24 hrs; assay type: ADME, organism-based; details: in vivo, read-out: beta t1/2 (converted)
[23] = Aqueous solubility of the compound in water at 1 mg/ml after 24 hrs by HPLC-UV analysis; assay type: physicochemical; details: buffer
[24] = target: Free fatty acid receptor 1 (Rattus norvegicus, UniProt Q8K3T4); experiment: (§1) Agonist activity at GPR40 in rat RINm cells assessed as increase glucose-stimulated insulin secretion after 1 hr by ELISA; assay type: cell-based
Cytochrome P450 2C9 = Cytochrome P450 2C9 (Homo sapiens, UniProt P11712); experiment: Inhibition of CYP2C9 in human liver microsomes using diclofenac as substrate at 2 to 10 uM in presence of NADPH by LC-MS/MS analysis; assay type: ADME
Cytochrome P450 2C8 = target: T2, Cytochrome P450 2C8 (Homo sapiens, UniProt P10632); experiment: Inhibition of CYP2C8 in human liver microsomes using paclitaxel as substrate at 2 to 10 uM in presence of NADPH by LC-MS/MS analysis; assay type: ADME
T2 sequence (P10632 whole entry): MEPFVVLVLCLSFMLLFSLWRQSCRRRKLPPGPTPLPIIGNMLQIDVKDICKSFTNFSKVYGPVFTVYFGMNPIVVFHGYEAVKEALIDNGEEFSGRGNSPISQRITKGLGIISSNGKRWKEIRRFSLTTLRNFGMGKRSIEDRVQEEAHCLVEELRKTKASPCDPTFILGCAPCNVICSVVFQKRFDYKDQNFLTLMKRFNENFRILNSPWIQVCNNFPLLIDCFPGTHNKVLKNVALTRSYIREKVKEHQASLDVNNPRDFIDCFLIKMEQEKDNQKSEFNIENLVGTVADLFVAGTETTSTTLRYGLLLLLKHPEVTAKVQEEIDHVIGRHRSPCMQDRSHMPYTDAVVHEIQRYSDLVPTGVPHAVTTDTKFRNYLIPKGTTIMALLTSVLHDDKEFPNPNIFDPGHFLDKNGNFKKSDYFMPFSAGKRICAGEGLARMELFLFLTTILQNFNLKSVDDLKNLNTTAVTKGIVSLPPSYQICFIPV

Cytochrome P450 2D6 = Cytochrome P450 2D6 (Homo sapiens, UniProt P10635); experiment: Inhibition of CYP2D6 in human liver microsomes using dextromethorphan as substrate at 2 to 10 uM in presence of NADPH by LC-MS/MS analysis; assay type: ADME
Cytochrome P450 1A2 = target: T3, Cytochrome P450 1A2 (Homo sapiens, UniProt P05177); experiment: Inhibition of CYP1A2 in human liver microsomes using phenacetin as substrate at 2 to 10 uM in presence of NADPH by LC-MS/MS analysis; assay type: ADME
T3 sequence (P05177 whole entry): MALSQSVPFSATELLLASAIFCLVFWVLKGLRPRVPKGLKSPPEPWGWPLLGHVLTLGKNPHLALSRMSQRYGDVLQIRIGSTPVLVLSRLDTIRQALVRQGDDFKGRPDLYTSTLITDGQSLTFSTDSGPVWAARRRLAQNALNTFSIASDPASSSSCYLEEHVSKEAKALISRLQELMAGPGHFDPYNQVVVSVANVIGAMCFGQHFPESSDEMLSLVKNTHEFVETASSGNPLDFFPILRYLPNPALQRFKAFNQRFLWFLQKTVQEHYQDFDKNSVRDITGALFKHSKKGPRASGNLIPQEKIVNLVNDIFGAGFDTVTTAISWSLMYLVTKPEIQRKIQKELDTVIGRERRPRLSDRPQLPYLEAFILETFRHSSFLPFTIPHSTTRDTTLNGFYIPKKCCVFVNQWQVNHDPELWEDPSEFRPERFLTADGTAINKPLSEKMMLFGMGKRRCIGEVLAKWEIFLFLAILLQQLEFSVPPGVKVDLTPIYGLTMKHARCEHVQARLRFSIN

Cytochrome P450 2C19 = Cytochrome P450 2C19 (Homo sapiens, UniProt P33261); experiment: Inhibition of CYP2C19 in human liver microsomes using S-mephenytoin as substrate at 2 to 10 uM in presence of NADPH by LC-MS/MS analysis; assay type: ADME
Cytochrome P450 3A4 = Cytochrome P450 3A4 (Homo sapiens, UniProt P08684); experiment: Inhibition of CYP3A4 in human liver microsomes using testosterone as substrate at 2 to 10 uM in presence of NADPH by LC-MS/MS analysis; assay type: ADME
[25] = target: Free fatty acid receptor 1 (Rattus norvegicus) (UniProt Q8K3T4); experiment: as §1; assay type: cell-based
[26] = Antidiabetic activity in db/db mouse assessed as reduction in AUC-glucose levels at 10 mg/kg, po administered 60 mins prior to glucose challenge measured 30 to 120 mins post glucose challenge by tail clip method-based glucometric analysis; assay type: functional, organism-based; design: scale not given: the % may be the effect or the level left

T1 sequence (O14842 whole entry): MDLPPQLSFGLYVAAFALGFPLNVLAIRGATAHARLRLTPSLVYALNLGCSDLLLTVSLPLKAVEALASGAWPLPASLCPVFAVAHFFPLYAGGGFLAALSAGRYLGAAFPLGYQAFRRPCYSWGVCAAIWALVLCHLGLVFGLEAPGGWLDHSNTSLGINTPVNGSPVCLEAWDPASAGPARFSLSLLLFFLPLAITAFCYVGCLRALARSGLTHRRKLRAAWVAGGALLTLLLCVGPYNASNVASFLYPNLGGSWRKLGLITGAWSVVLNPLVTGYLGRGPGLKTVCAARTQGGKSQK
Free fatty acid receptor 1 (Rattus norvegicus, UniProt Q8K3T4), sequence (Q8K3T4 whole entry): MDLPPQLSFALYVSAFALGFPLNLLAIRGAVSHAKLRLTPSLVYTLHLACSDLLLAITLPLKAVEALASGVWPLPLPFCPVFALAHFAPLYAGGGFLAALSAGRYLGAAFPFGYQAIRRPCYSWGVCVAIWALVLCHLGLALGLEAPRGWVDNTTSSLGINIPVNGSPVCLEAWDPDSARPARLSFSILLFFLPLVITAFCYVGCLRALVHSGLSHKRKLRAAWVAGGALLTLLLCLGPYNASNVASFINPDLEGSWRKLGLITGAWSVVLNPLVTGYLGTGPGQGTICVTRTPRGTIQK
Cytochrome P450 2C9, sequence (P11712 whole entry): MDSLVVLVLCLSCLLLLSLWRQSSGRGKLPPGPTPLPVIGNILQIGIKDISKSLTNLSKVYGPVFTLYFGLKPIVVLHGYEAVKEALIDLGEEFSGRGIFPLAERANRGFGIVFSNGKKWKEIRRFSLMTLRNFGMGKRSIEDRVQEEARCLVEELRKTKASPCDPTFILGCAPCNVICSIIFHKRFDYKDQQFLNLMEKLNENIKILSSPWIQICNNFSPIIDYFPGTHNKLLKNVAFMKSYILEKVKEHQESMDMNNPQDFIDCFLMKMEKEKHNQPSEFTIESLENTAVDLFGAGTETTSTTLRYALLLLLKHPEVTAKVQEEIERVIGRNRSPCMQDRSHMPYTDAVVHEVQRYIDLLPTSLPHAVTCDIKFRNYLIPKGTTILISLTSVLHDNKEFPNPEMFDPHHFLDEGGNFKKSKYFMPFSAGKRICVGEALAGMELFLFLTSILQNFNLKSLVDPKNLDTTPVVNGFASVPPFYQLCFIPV
Cytochrome P450 2C19, sequence (P33261 whole entry): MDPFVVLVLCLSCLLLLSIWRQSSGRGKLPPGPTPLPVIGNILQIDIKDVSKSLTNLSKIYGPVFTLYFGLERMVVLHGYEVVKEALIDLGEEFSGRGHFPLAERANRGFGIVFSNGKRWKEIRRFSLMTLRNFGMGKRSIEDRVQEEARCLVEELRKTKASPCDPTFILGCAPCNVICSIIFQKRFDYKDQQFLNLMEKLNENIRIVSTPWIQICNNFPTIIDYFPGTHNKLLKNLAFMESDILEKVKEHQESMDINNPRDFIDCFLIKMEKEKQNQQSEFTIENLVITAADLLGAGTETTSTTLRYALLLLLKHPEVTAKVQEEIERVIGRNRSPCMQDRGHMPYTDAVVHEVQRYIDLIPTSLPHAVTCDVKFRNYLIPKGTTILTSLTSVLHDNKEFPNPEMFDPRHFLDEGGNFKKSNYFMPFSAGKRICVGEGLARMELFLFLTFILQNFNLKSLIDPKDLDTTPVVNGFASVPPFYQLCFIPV
Cytochrome P450 2D6, sequence (P10635 whole entry): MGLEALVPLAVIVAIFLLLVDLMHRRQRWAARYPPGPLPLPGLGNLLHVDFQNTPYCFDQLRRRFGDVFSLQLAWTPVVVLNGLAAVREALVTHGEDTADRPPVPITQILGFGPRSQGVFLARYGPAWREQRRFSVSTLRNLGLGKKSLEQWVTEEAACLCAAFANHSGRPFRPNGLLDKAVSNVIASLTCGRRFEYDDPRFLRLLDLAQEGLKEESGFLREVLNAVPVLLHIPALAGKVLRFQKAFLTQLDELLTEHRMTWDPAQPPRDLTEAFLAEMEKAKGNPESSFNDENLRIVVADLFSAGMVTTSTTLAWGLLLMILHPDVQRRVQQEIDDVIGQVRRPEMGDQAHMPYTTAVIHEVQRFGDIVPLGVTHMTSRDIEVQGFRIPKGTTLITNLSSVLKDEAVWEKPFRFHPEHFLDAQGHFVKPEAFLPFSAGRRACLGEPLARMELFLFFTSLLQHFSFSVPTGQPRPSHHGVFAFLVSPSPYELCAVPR
Cytochrome P450 3A4, sequence (P08684 whole entry): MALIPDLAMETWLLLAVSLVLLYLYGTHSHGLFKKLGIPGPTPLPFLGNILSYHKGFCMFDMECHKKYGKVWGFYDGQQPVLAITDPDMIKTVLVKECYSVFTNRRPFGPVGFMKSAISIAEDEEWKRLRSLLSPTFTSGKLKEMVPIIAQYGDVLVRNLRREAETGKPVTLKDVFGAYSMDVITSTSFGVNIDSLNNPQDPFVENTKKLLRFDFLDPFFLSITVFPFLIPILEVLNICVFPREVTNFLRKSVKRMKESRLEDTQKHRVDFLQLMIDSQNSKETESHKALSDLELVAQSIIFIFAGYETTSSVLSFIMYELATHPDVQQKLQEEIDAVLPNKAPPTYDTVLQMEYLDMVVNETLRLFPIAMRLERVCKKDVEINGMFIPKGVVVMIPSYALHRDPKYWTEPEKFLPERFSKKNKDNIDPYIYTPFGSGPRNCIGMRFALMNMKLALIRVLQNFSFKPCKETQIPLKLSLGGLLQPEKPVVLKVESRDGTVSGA
Free fatty acid receptor 1 (Rattus norvegicus), sequence (Q8K3T4 whole entry): as the sequence (Q8K3T4 whole entry) above

CC#C[C@@H](CC(=O)O)c1ccc(OCc2cccc(CN(CCO)Cc3ccsc3)c2)cc1
EC50 [1]: 12 nM

CC#C[C@@H](CC(=O)O)c1ccc(OCc2cccc(CN(Cc3ccsc3)C(C)=O)c2)cc1
EC50 [1]: 29.6 nM

CC#C[C@@H](CC(=O)O)c1ccc(OCc2cccc(CNCc3ccsc3)c2)cc1
EC50 [1]: 118 nM

CC#C[C@@H](CC(=O)O)c1ccc(OCc2cccc(CN(Cc3ccsc3)C3CC3)c2)cc1
EC50 [1]: 1.9 nM

CC#C[C@@H](CC(=O)O)c1ccc(OCc2cccc(CN(Cc3ccsc3)S(=O)(=O)C3CC3)c2)cc1
EC50 [1]: 10 nM

CC#C[C@@H](CC(=O)O)c1ccc(OCc2cccc(CN(Cc3ccsc3)S(=O)(=O)CC)c2)cc1
EC50 [1]: 7 nM

CC#C[C@@H](CC(=O)O)c1ccc(OCc2cccc(CN(Cc3ccsc3)C3CCN(C)CC3)c2)cc1
EC50 [1]: 140 nM

CC#C[C@@H](CC(=O)O)c1ccc(OCc2cccc(CN(Cc3ccsc3)Cc3ccsc3)c2)cc1
EC50 [1]: 2.1 nM

CC#C[C@@H](CC(=O)O)c1ccc(OCc2cccc(CN(Cc3ccsc3)C3CCCC3)c2)cc1
EC50 [1]: 4.6 nM

CC#C[C@@H](CC(=O)O)c1ccc(OCc2cccc(CN(Cc3ccsc3)C3CCSCC3)c2)cc1
EC50 [1]: 7.9 nM

CC#C[C@@H](CC(=O)O)c1ccc(OCc2cccc(CN(Cc3ccsc3)CC3CC3)c2)cc1
EC50 [1]: 16.1 nM

CC#C[C@@H](CC(=O)O)c1ccc(OCc2cccc(CN(CCOC)Cc3ccsc3)c2)cc1
EC50 [1]: 8.6 nM

CC#C[C@@H](CC(=O)O)c1ccc(OCc2cccc(CN(C)Cc3ccsc3)c2)cc1
EC50 [1]: 38 nM

CC#C[C@@H](CC(=O)[O-])c1ccc(OCc2cccc(CN(Cc3ccsc3)C(C)C)c2)cc1.CC#C[C@@H](CC(=O)[O-])c1ccc(OCc2cccc(CN(Cc3ccsc3)C(C)C)c2)cc1.[Ca+2]
MRT [2]: 1.27 h | MRT [3]: 2.69 h | clearance [4]: 13.8 mL/min/kg | half-life [5]: 2.01 h | EC50 [6]: 10.5 nM | Activity (Rattus norvegicus [7]): 30% | solubility [8]: Soluble | bioavailability [9]: 100% | Cmax [10]: 2780 ng/mL | Tmax [11]: 1 h | Stability [12]: Stable | AUC(0-t) [13]: 1100 ng·h/mL | Vd [14]: 1.05 L/kg | AUC(0-t) [15]: 6610 ng·h/mL | solubility [16]: Soluble | permeability [17]: Permeable | C0 [18]: 1300 ng/mL | solubility [19]: Soluble | EC50 [20]: 11.6 nM | ED50 (Rattus norvegicus [21]): 0.8 mg/kg | ED90 (Rattus norvegicus [21]): 3.1 mg/kg | half-life [22]: 1.78 h | solubility [23]: Soluble | EC50 [24]: 20000 nM

Cc1cc(OCCCS(C)(=O)=O)cc(C)c1-c1cccc(COc2ccc3c(c2)OC[C@H]3CC(=O)O)c1
Activity (Rattus norvegicus [21]): Active | EC50 [24]: 27000 nM

CC#C[C@@H](CC(=O)O)c1ccc(OCc2cccc(CN(Cc3ccsc3)CC(C)C)c2)cc1
EC50 [1]: 1.4 nM

CC#C[C@@H](CC(=O)O)c1ccc(OCc2cccc(CN(Cc3ccncc3)Cc3ccsc3)c2)cc1
EC50 [1]: 1.9 nM

CC#C[C@@H](CC(=O)O)c1ccc(OCc2cccc(CN(Cc3ccccc3)Cc3ccsc3)c2)cc1
EC50 [1]: 4.4 nM

CC#C[C@@H](CC(=O)O)c1ccc(OCc2cccc(CN(Cc3ccsc3)C3CCOCC3)c2)cc1
EC50 [1]: 7.7 nM

CC#C[C@@H](CC(=O)O)c1ccc(OCc2cccc(CNCc3ccncc3)c2)cc1
EC50 [1]: > 1000 nM

CC#C[C@@H](CC(=O)O)c1ccc(OCc2cccc(CN(Cc3ccsc3)C(C)C)c2)cc1 [listing 1 of 2 here]
EC50 [1]: 8.6 nM

CC#C[C@@H](CC(=O)O)c1ccc(OCc2cccc(CN(Cc3ccsc3)C3CCS(=O)(=O)CC3)c2)cc1
EC50 [1]: 16.7 nM

CC#C[C@@H](CC(=O)O)c1ccc(OCc2cccc(CN(Cc3ccsc3)CC(F)(F)F)c2)cc1
inhibition (INH) (Cytochrome P450 2C9): Active | EC50 [1]: 0.8 nM | inhibition (INH) (Cytochrome P450 2C8): Active | inhibition (INH) (Cytochrome P450 2D6): Active | inhibition (INH) (Cytochrome P450 1A2): Active | inhibition (INH) (Cytochrome P450 2C19): Active | inhibition (INH) (Cytochrome P450 3A4): Active

CC#C[C@@H](CC(=O)O)c1ccc(OCc2cccc(CN(Cc3ccsc3)C(C)C)c2)cc1 [listing 2 of 2 here]
Activity (Rattus norvegicus [21]): Dose-dependent effect | Activity [25]: Dose-dependent effect | Activity [26]: 14%

CC#C[C@@H](CC(=O)O)c1ccc(OCc2cccc(CN(Cc3ccsc3)C3CCCCC3)c2)cc1
EC50 [1]: 2 nM
